Results taken from ChEMBL document CHEMBL1131753, “Selective binding of bryostatin analogues to the cysteine rich domains of protein kinase C isozymes” (Bioorg Med Chem Lett, 1999).

Assays:
[1] = target: T1, Protein kinase C delta type (Homo sapiens, UniProt Q05655); test: Displacement of [3H]PDBu from protein kinase C delta C1a domain
[2] = target: Protein kinase C beta type (Homo sapiens, UniProt P05771); test: Displacement of [3H]PDBu from protein kinase C beta C1b domain
[3] = target: T1, Protein kinase C delta type; test: Displacement of [3H]PDBu from protein kinase C delta C1b domain
[4] = target: T2, Protein kinase C gamma type (Homo sapiens, UniProt P05129); test: Displacement of [3H]-PDBu from protein kinase C gamma C1a domain
[5] = target: T2, Protein kinase C gamma type; test: Displacement of [3H]PDBu from protein kinase C gamma C1b domain
[6] = target: T3, Protein kinase C epsilon type (Homo sapiens, UniProt Q02156); test: Displacement of [3H]PDBu from protein kinase C epsilon C1b domain
T3 sequence (Q02156 whole entry): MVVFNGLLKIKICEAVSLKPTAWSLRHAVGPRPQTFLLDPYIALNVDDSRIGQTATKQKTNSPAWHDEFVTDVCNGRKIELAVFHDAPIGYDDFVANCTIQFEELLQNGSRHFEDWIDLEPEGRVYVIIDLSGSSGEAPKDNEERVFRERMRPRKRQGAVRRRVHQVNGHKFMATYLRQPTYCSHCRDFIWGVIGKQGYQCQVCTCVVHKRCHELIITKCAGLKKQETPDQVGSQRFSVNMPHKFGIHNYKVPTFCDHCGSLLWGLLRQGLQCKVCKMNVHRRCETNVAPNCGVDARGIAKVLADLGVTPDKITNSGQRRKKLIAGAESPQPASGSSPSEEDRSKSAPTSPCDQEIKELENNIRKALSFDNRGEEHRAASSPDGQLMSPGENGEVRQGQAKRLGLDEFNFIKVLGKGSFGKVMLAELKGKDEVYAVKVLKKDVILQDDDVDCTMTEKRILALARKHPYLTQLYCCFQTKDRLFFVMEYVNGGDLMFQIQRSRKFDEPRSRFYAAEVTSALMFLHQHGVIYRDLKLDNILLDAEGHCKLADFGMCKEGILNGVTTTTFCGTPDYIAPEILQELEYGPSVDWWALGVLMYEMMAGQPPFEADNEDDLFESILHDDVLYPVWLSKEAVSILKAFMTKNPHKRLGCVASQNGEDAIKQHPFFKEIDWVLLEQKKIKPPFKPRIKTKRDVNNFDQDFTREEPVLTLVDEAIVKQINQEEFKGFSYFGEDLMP

[7] = target: Protein kinase C eta type (Homo sapiens, UniProt P24723); test: Displacement of [3H]PDBu from protein kinase C eta C1b domain
Sequence of Protein kinase C eta type (P24723 whole entry, the tested form may be a part): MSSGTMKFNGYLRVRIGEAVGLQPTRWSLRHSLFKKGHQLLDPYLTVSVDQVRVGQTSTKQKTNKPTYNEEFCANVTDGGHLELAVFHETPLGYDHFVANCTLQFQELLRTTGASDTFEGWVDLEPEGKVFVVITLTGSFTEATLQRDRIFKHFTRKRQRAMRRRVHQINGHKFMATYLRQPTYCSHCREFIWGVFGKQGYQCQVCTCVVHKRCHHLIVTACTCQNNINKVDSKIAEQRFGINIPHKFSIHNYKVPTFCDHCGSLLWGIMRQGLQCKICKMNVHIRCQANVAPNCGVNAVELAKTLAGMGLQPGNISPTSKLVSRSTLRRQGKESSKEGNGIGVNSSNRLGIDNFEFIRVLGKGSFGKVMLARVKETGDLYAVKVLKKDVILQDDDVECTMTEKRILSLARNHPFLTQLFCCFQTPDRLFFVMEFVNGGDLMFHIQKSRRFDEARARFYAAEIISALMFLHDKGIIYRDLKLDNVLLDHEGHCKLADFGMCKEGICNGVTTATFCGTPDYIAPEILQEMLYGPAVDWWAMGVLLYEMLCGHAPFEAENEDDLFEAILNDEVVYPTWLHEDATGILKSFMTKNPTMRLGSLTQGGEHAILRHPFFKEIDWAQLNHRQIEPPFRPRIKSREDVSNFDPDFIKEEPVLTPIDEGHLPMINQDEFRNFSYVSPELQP

[8] = target: Protein kinase C theta type (Homo sapiens, UniProt Q04759); test: Displacement of [3H]PDBu from protein kinase C theta-C1B domain
Sequence of Protein kinase C theta type (Q04759 whole entry, the tested form may be a part): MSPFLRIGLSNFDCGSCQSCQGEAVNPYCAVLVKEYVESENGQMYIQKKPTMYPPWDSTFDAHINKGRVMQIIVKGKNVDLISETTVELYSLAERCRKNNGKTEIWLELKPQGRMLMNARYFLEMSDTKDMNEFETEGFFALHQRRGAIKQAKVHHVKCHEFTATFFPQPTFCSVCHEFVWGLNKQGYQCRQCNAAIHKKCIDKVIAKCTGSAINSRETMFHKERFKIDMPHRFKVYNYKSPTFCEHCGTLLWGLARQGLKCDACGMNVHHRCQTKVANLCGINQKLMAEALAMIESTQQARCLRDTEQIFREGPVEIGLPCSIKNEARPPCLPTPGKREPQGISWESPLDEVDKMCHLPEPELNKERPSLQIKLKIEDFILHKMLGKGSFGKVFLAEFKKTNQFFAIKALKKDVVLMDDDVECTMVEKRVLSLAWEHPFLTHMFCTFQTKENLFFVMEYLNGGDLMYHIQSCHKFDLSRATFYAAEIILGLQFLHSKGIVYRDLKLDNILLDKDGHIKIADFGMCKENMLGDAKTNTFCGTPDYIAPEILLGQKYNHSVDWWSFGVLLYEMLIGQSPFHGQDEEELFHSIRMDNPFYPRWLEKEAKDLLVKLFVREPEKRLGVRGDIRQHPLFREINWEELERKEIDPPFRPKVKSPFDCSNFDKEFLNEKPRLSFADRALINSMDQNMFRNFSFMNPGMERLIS

[9] = target: Protein kinase C alpha type (Homo sapiens, UniProt P17252); test: Displacement of [3H]PDBu from protein kinase C alpha C1b domain

T1 sequence (Q05655 whole entry, the tested form may be a part): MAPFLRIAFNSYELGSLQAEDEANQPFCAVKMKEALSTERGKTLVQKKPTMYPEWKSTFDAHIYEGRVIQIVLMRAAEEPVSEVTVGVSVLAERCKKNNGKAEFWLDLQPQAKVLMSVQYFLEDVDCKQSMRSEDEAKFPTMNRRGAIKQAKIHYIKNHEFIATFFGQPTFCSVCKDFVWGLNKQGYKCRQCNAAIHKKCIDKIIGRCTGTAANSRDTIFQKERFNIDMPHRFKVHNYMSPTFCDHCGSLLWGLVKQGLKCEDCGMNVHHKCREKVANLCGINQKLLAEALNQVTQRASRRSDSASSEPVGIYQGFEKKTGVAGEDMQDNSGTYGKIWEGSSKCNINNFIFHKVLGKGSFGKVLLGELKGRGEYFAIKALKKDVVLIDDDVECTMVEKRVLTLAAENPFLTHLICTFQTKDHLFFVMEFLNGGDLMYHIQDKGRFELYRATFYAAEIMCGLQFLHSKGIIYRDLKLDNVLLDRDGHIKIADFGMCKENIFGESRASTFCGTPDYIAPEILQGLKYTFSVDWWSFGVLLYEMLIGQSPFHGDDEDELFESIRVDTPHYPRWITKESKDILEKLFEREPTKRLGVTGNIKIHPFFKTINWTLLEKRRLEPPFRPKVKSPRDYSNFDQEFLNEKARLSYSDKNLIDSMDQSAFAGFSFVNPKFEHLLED
Sequence of Protein kinase C beta type (P05771 whole entry, the tested form may be a part): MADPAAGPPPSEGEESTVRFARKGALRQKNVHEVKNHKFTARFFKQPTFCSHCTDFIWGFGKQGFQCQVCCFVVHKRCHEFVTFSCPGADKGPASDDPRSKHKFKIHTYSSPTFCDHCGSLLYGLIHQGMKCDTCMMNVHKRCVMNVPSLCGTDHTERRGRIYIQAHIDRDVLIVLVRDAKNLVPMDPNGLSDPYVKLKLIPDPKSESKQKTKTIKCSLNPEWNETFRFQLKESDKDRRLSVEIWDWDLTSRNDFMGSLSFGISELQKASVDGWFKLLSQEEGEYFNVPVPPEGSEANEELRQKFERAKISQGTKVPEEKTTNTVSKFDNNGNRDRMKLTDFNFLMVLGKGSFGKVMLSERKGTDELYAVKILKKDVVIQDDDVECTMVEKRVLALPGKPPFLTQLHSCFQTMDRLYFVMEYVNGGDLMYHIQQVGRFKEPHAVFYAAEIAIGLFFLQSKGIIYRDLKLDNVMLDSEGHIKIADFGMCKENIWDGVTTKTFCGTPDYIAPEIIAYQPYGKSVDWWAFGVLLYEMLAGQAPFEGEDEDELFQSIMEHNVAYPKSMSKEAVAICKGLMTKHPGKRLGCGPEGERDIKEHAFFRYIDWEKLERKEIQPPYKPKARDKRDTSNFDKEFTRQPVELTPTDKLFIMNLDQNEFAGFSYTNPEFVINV

| SMILES | Ki [1] [nM] | Ki [2] [nM] | Ki [3] [nM] | Ki [4] [nM] | Ki [5] [nM] | Ki [6] [nM] | Ki [7] [nM] | Ki [8] [nM] | Ki [9] [nM] |
| --- | --- | --- | --- | --- | --- | --- | --- | --- | --- |
| CCCCCCCC(=O)O[C@H]1/C(=C/C(=O)OC)CC2C[C@H]([C@@H](C)O)OC(=O)C[C@H](O)CCO[C@H](C(C)(C)C)C[C@@H]3CCO[C@H](/C=C/C(C)(C)[C@]1(O)O2)O3 | 85.4 | 36.4 | 6.3 | > 500 | > 500 | 55 | 70.2 | 24.1 | > 500 |
| CCCCCCCC(=O)O[C@H]1/C(=C/C(=O)OC)CC2C[C@H]([C@@H](C)O)OC(=O)C[C@@H](O)C[C@@H]3CCC[C@H](C[C@@H]4CCO[C@H](/C=C/C(C)(C)[C@]1(O)O2)O4)O3 | 494 | 280 | 64.2 | > 500 | > 500 | 490 | > 500 | 147 | > 500 |
| CCCCCCCC(=O)O[C@H]1/C(=C/C(=O)OC)CC2C[C@H]([C@@H](C)O)OC(=O)C[C@H](O)C[C@@H]3CCC[C@H](C[C@@H]4CCO[C@H](/C=C/C(C)(C)[C@]1(O)O2)O4)O3 | 65.9 | 13.4 | 2.5 | > 500 | > 500 | 17.9 | 23.5 | 6.6 | 126 |
